Experimental data taken from the NIST ThermoML archive (doi:10.1016/j.jct.2018.03.021).

Legend:
[1] = xn = mol fraction of the nth substance listed; conditions: 100 kPa, Liquid, Vibrating tube method
[2] = molar heat capacity at constant pressure; xn = mol fraction of the nth substance listed; conditions: 100 kPa, Liquid, Extra sensitive DSC

Cc1ccc(C(C)C)cc1 [1-(1-methylethyl)-4-methylbenzene] + CCCO
Conditions	mass density, 298.15 K [kg/m3]	mass density, 308.15 K [kg/m3]	mass density, 318.15 K [kg/m3]	mass density, 328.15 K [kg/m3]	molar heat capacity at constant pressure, 298.8 K [J/K/mol]	molar heat capacity at constant pressure, 308.7 K [J/K/mol]	molar heat capacity at constant pressure, 318.6 K [J/K/mol]	molar heat capacity at constant pressure, 328.5 K [J/K/mol]
[1], x1 = 0.0499	804.92	796.73	788.38	779.8	–	–	–	–
[1], x1 = 0.1007	809.8	801.54	793.11	784.46	–	–	–	–
[1], x1 = 0.2029	818.12	809.76	801.22	792.47	–	–	–	–
[1], x1 = 0.3021	824.8	816.37	807.78	798.98	–	–	–	–
[1], x1 = 0.4032	830.42	821.98	813.38	804.59	–	–	–	–
[1], x1 = 0.5045	835.28	826.83	818.25	809.51	–	–	–	–
[1], x1 = 0.6044	839.47	831.05	822.51	813.82	–	–	–	–
[1], x1 = 0.6974	842.95	834.57	826.09	817.49	–	–	–	–
[1], x1 = 0.8035	846.57	838.26	829.87	821.37	–	–	–	–
[1], x1 = 0.8989	849.61	841.39	833.1	824.75	–	–	–	–
[1], x1 = 0.9508	851.22	843.07	834.88	826.65	–	–	–	–
[1], x1 = 1	852.99	844.94	836.86	828.75	–	–	–	–
[2], x1 = 0.0499	–	–	–	–	151.2	158.5	165.9	173.4
[2], x1 = 0.1007	–	–	–	–	159.6	166.5	173.5	180.7
[2], x1 = 0.2029	–	–	–	–	174.5	182.2	188.4	195.4
[2], x1 = 0.3021	–	–	–	–	186.9	194	201.2	208.3
[2], x1 = 0.4032	–	–	–	–	198.6	206.1	213.2	220.7
[2], x1 = 0.5045	–	–	–	–	210.6	217.2	223.9	231.2
[2], x1 = 0.6044	–	–	–	–	221	227.2	233.3	240.2
[2], x1 = 0.6974	–	–	–	–	229.1	235	240.8	246.8
[2], x1 = 0.8035	–	–	–	–	237.6	242.8	248.1	253.4
[2], x1 = 0.8989	–	–	–	–	242.2	246.2	250.4	254.5
[2], x1 = 0.9508	–	–	–	–	242.4	245.3	248.8	252.6
[2], x1 = 1	–	–	–	–	240.9	244.8	249.4	254.6
